Measurements as given in patent US20260232767A1, “INTERLEUKIN-23 RECEPTOR ANTAGONIST PEPTIDES FOR USE IN THE TREATMENT OF PSORIASIS” (Janssen Pharmaceutica NV, priority 2023, published 2026).

Tested on: IL-22
Assay: Serum IL-22 immunoassay
Assay type: in vivo, human
Conditions: all treatment groups relative to placebo
Description: To evaluate psoriasis relevant systemic biomarkers (Beta-defensin 2 (BD-2), IL-17A, IL-17F, and IL-22), protein concentrations were measured in serum using validated immunoassays. The IL-17A (Catalog #03-0159-00) and IL-17F (Catalog #03-0164-00) assays used are commercially available SMC™-based high sensitivity immunoassays produced by the EMD Millipore Corporation. The manufacturer's protocols were followed and analyzed on the Erenna® instrument platform except for the use of 11 μL Elution Buffer B. While the IL-22 assay is also based on the SMC™ platform and run on the Erenna instrument, the assay was developed internally as a coated plate-based assay. The development and optimization of the BD-2 assay was done on the Meso Scale Discovery on the electrochemiluminescence-based platform, a division of Meso Scale Diagnostics LLC (MSD). For all assays, concentration adjustments were made to values measuring below empirically defined LLOQ or empirically defined ULOQ values. Assay QC verified performance of generated standard curves (average concentration recovery & CV of technical replicates) and control samples (inter-assay plate agreement (CV)).
Serum levels of psoriasis disease biomarkers BD-2, IL-22, IL-17A, and IL-17F relative to baseline were analyzed in patients who received placebo or the compound of Formula (I) and compared to clinical response. […]

SMILES: CC(=O)NCCCC[C@@H]1NC(=O)[C@H](Cc2c[nH]c3c(C)cccc23)NC(=O)[C@H]([C@@H](C)O)NC(=O)[C@H](CC(N)=O)NC(=O)[C@@H](NC(C)=O)C(C)(C)SSC(C)(C)[C@@H](C(=O)N[C@@H](Cc2ccc(OCCN)cc2)C(=O)N[C@@H](Cc2ccc3ccccc3c2)C(=O)NC2(C(=O)N[C@@H](CCC(=O)O)C(=O)N[C@@H](CC(N)=O)C(=O)N[C@@H](Cc3cccnc3)C(=O)N(C)CC(N)=O)CCOCC2)NC1=O [IL-23 receptor antagonist peptide, Ac-[Pen]*-N-T-[W(7-Me)]-[Lys(Ac)]-[Pen]*-Phe[4-(2-aminoethoxy)]-[2-Nal]-[THP]-E-N-[3-Pal]-Sarc-NH2 (*[Pen]-[Pen]* formdisulfidebond)]
- IL-22 serum levels: statistically significant reduction
